# “Also recorded” adds a separate entry of the source. Where two headings read alike, the source gives them in different places.
# What was measured:
# [1] = tested on: eczema and dermatitis patients; details: human, in vivo; cited from earlier work
# rats = details: rat, in vivo; cited from earlier work
# [2] = tested on: yellow fever mosquito (Aedes aegypti (L)); experiment: Direct skin application, protection time against yellow fever mosquito; type: in vivo; details: 1 ml 100% HCA on forearm
# Protocol: (§1) A glove was worn to protect the untreated hand while the treated forearm was exposed in a cage containing a high number (2,000-4,000) of unfed mosquitoes for 3 minutes at intervals of approximately 30 minutes until two bites were received (two bites in one test period or one bite in each of two consecutive test periods). The time interval between application and when two bites were received was defined as the "protection time." The repellent classes based on protection time (minutes) are listed below: […]
# human subjects [3] = details: 12% in petrolatum, 48 hour closed patch; cited from earlier work
# [4] = tested on: patients sensitive to 2% cinnamaldehyde; details: human, in vivo; cited from earlier work
# human subjects [5] = details: 20% in diethylphthalate, 100 human subjects; cited from earlier work
# yellow fever mosquito = experiment: Application to clothing, treated stocking against yellow fever mosquito; type: in vivo, Aedes aegypti; details: cotton stocking, 3.3 g/ft^2
# Protocol: HCA also was evaluated on treated cloth against the yellow fever mosquito. In these tests, women's mercerized-cotton stockings were used. […] The stocking was spread on a rack to dry and then hung indoors on a line. The first tests were done 24 hours after treatment. The treated stocking was drawn over the arm, with the treated portion midway on the forearm. The untreated hand was protected with a glove and the stocking-covered arm was exposed for one minute in a testcage. If 5 bites were received, the treatment was considered ineffective. If less than 5 bites were received; the exposures were continued daily until the 14th day and at weekly or biweekly intervals thereafter.
# [6] = tested on: malaria mosquito (Anopheles quadrimaculatus Say); experiment: Direct skin application, protection time against malaria mosquito; type: in vivo; details: 1 ml 100% HCA on forearm
# Protocol: as §1
# human = details: cited from earlier work
# [7] = tested on: Aedes Aegypsi (yellow fever mosquito); experiment: Median Effective Dose to repel Aedes aegypti, mosquito blood feeder; type: in vivo; details: Bandruche membrane, 37°, acetone formulation
# Protocol: Median Effective Dose (ED50) is defined as the amount of chemical required to repel 50% of a target pest. […] The test system used was a mosquito blood feeder, which includes a constant temperature water circulator to warm the blood in the feeder, and the test cage. The blood was maintained at 37°. The blood feeder has five circular blood reservoirs, each of which is filled with outdated blood obtained from the Walter Reed Army Medical Center and certified safe according to Blood Bank testing procedures. The blood was replenished with adenosine triphosphate (ATP), without which the mosquitoes will not feed freely. The blood-filledreservoirs were covered with a Bandruche membrane (a standard membrane barrier). […] DEET was used as a positive control in a similar manner. A negative control formulation (water only) also was tested. The mosquitoes were given access to the blood reservoirs on a "free feeding" basis by means of a sliding door in the bottom of the test cage.
# [8] = cited from earlier work
# [9] = tested on: grape phylloxera (Daktulosphaira vitifoliae Fitch); experiment: Treatment of grapevine leaves for control of root forms of grape phylloxera; type: in vivo; details: for Number of Phylloxera on 6 root sections, Eggs: water 52; for Number of Phylloxera on 6 root sections, 1st instar / Number of Phylloxera on 6 root sections, 2nd instar / Number of Phylloxera on 6 root sections, 3rd instar: water 7; for Number of Phylloxera on 6 root sections, 4th instar: water 13; for Number of Phylloxera on 6 root sections, Adults: water 16
# Protocol: The root form of grape phylloxera (Daktulosphaira vitifoliae Fitch) is arguably the most devastating grape insect world wide. In this experiment, cinnamic aldehyde formulated with 1% Tween 80 was tested for ability to control phylloxera. One year old potted V. vinifera cultivar merlot plants were used that had been obtained from Foundation Plant Material Service, University of California, Davis. The plants were potted in 10 cm diameter ports and were infested with phylloxera 5 weeks prior to treatment. At the time of spraying, plant pots were placed in a plastic bag so that chemical runoff from the leaf sprays would not drip into the soil. Spray was applied to runoff with a household 1 liter-capacity plastic spray bottle. Plants were allowed to air dry outside and then replaced in the greenhouse. At intervals thereafter, the roots were separated from the potting mix and total phylloxera population estimated.
# Roots from plants at 5 weeks post-treatment were excised and 6 root sections, about 3 mm diameter by 4 cm length were cleaned of infestations and used in a bioassay. For this bioassay, root sections were inoculated with 20 eggs and the roots maintained as the colonies were maintained. After 25 days, the number of individuals of each age class were counted.
# [10] = cited from earlier work; remark: listed apart in the source
# [11] = tested on: Western Flower Thrips (Thysanoptera); experiment: Repellency to Western Flower Thrips on alfalfa inflorescence; type: in vivo; details: 2% coniferyl aldehyde, 1% Tween 80
# Description: Western Flower Thrips (Thysanoptera) were collected in the field on infested alfalfa (Medicago sativa). Alfalfa inflorescence were cut then dipped in either a coniferyl aldehyde formulation (2% coniferyl aldehyde, 1% Tween 80) or a water control, then were placed in an experimental arena (approximately 9 cm in diameter by 6 centimeter in height) on a Whatman filter paper disk covering the floor of the arena. Approximately fifty (50) to sixty (60) insects were aspirated into the experimental arena which was then covered with a transparent lid. […] Repellency was determined by the relative number of individuals who successfully maintained feeding and colonization on the inflorescence over time.
# [12] = 33% DEET; cited from earlier work
# [13] = 25° C.; cited from earlier work
structure (smiles),measurement,setting,value
"CCCCCCC(C=O)=Cc1ccccc1 [HCA, 2-(phenylmethylene) octanal]",patch test positive results out of 100,[1],0
same,oral LD50,rats,3100 mg/kg
same,protection time,[2],121 to 180 min
same,repellent class based on protection time,[2]; USDA rating scale,3 (121-180)
same,irritation,human subjects [3],no irritation
same,patients found to be sensitive,[4],none
same,"positive reactions, repeated insult patch test",human subjects [5],no positive reactions
same,duration of effectiveness on treated cloth,yellow fever mosquito,more than 10 days
same,protection time grade on treated cloth,yellow fever mosquito,4 (effective for more than 10 days)
same,protection time,[6],31 to 60 min
same,repellent class based on protection time,[6]; USDA rating scale,2 (31-60)
same,human maximization test result,human; in vivo,negative
same,Median Effective Dose (ED50),[7],0.0031 mg/cm^2
same,dermal LD50,[8],greater than 3 g/kg
O=C/C=C/c1ccccc1 [cinnamic aldehyde],"Number of Phylloxera on 6 root sections, Eggs","[9]; 300 ppm, 1% Tween 80, roots 5 weeks post-treatment, 25 days",16
same,"Number of Phylloxera on 6 root sections, 1st instar",[9]; 300 ppm,0
same,"Number of Phylloxera on 6 root sections, 2nd instar",[9]; 300 ppm,6
same,"Number of Phylloxera on 6 root sections, 3rd instar",[9]; 300 ppm,5
same,"Number of Phylloxera on 6 root sections, 4th instar",[9]; 300 ppm,0
same,"Number of Phylloxera on 6 root sections, Adults",[9]; 300 ppm,4
same,"Number of Phylloxera on 6 root sections, 1st instar",[9]; 1000 ppm,0
same,"Number of Phylloxera on 6 root sections, 2nd instar",[9]; 1000 ppm,1
same,"Number of Phylloxera on 6 root sections, 3rd instar",[9]; 1000 ppm,4
same,"Number of Phylloxera on 6 root sections, 4th instar",[9]; 1000 ppm,2
same,"Number of Phylloxera on 6 root sections, Adults",[9]; 1000 ppm,1
same,"Number of Phylloxera on 6 root sections, Eggs",[9]; 1000 ppm,2
same,"Number of Phylloxera on 6 root sections, 1st instar",[9]; 3000 ppm,0
same,"Number of Phylloxera on 6 root sections, 2nd instar",[9]; 3000 ppm,2
same,"Number of Phylloxera on 6 root sections, 3rd instar",[9]; 3000 ppm,1
same,"Number of Phylloxera on 6 root sections, 4th instar",[9]; 3000 ppm,1
same,"Number of Phylloxera on 6 root sections, Adults",[9]; 3000 ppm,0
same,"Number of Phylloxera on 6 root sections, Eggs",[9]; 3000 ppm,0
same,"Number of Phylloxera on 6 root sections, 1st instar","[9]; 10,000 ppm",0
same,"Number of Phylloxera on 6 root sections, 2nd instar","[9]; 10,000 ppm",2
same,"Number of Phylloxera on 6 root sections, 3rd instar","[9]; 10,000 ppm",0
same,"Number of Phylloxera on 6 root sections, 4th instar","[9]; 10,000 ppm",0
same,"Number of Phylloxera on 6 root sections, Adults","[9]; 10,000 ppm",0
same,"Number of Phylloxera on 6 root sections, Eggs","[9]; 10,000 ppm",0
same,duration of resistance of excised roots to phylloxera reinfestation,[9]; after foliage treatment,at least 5 weeks
same,feeding sites after foliage treatment,[9]; foliage of whole plants treated,Vacant feeding sites were seen
same,human maximization test result,"human; literature data, Jimbo (1983)",positive reaction
CCCC(O)C(CC)CO (stereo not shown) [ethyl hexanediol],adverse effects,[10]; basis of 1991 EPA cancellation of registrations,possible adverse effects of the compound on fetal development
"COc1cc(/C=C/C=O)ccc1O [Coniferyl Aldehyde, coniferyl aldehyde]",Number of insects on inflorescence (colonization and feeding),"[11]; about 50-60 insects, 30 min, water control 22(alive)",2(dead)
same,Description of insect behavior,"[11]; control tranquil, normal flight, feeding",Irritated by treatment; also recorded: extreme agitation; also recorded: frequent flying. No
same,Length of insect residence time on inflorescence,"[11]; max, water control 30 minutes",≤ 15 s
"CCN(CC)C(=O)c1cccc(C)c1 [DEET, N,N-diethyl-1,3-methylbenzamide]",adverse effects,[10]; repeated use on skin in high concentrations,can cause allergic and toxic effects
same,duration of protection,[12],10 to 14 h
same,vapor pressure,[13],167×10^-5 mm Hg
same,Median Effective Dose (ED50),[7],0.0124 mg/cm^2
